Where two headings read alike, the source gives them in different places.
Key:
Namalwa (Lymphoma) = assay: Proliferation of Namalwa; assay type: cell-based; conditions: for IC50: read-out: IC50 Namalwa (Lymphoma)
In short: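 Panc2.13 was seeded at 3000 cells/well, KP-4 at 800-1000, HL-60 at 5000 and Namalwa at 5000-10000, then given 3-fold serial dilutions of compound with final DMSO ≤0.25% for 96 h at 37° C. CellTiter Glo luminescence was read and inhibition calculated against DMSO-only wells. IC50 was normalised to comparator K101.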

PANC1 cells = assay: Sphere formation assay; assay type: cell-based; conditions: Homo sapiens, PANC-1, read-out: concentration exhibiting at least 50% inhibition on the sphere forming efficiency
Procedure: A group of diterpenoid compounds of the present disclosure were tested to assess their effects on blocking formation of spheres from cancer cell lines such as PANC1, a K-Ras mutant pancreatic cell line. Briefly, PANC1 cells were harvested, re-suspended as single cell suspensions, counted and seeded into Ultra Low Attachment Culture 96-well plate (Corning, Cat #3474) at 100 cells/well in 100 μl of complete media (with 10% FBS) containing 2% Matrigel (Corning, Cat #354234) and DMSO or compounds. Six replicates per condition were seeded. The seeded cells were placed in the 37° C. tissue culture incubator. 10 μl of low serum containing media (with 0.1% FBS) was added to each well every week. Spheres formed after 3-4 weeks were counted. Sphere forming efficiency was expressed as percentage of # of spheres/ # of cells seeded.

C1b domain of human PKCε = molecular target: T1, C1b domain of human PKCε (Homo sapiens, UniProt Q02156); assay: biochemical; assay type: binding; conditions: 3H-PDBu competition
T1 construct: Genes encoding C1b domains of human PKCα, δ, ε, θ, and PKD1 (PKCμ) were synthesized; made in house; host or cells: E. coli BL21(DE3)
In short: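 Binding is reported as Ki, derived from IC50 using Cheng-Prusoff with the experimentally determined 3H-PDBu Kd of each protein preparation. Tracer displacement from recombinant human GST-C1b (E. coli BL21(DE3)) was read by filter scintillation after 10 min at 37° C plus 20 min on ice.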

HL-60 (Leukemia) = assay: Proliferation of HL-60; assay type: cell-based; conditions: for IC50: Homo sapiens, HL-60, read-out: IC50 HL-60 (Leukemia)
Panc2.13 (Pancreatic) = assay: Proliferation of Panc2.13; assay type: cell-based; conditions: for IC50: read-out: IC50 Panc2.13 (Pancreatic)
In short: (§1)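 Luminescent ATP read-out (CellTiter Glo) after 96 h compound exposure gave % inhibition relative to DMSO-treated cells, from which IC50 was fitted. Seeding densities were line-specific, from 800 to 10000 cells/well. Potency across batches was normalised to reference compound K101.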

Panc2.13 tumors = assay: Panc2.13 xenograft model, intra-tumoral injection; assay type: in vivo, mouse; conditions: for tumor clearance: end of efficacy study, three mice per group, seven daily IT injections; for Tumor growth inhibition T/C: Day 45, seven daily IT injections, Nu/Nu mice
Procedure: Immunodeficient (athymic) Nu/Nu mice were implanted at one flank subcutaneously with Panc2.13 pancreatic cancer cells. […] All groups tolerated drug treatments very well. […] Scabs formed after 1-2 weeks and the skin recovered with minimal scaring after 3-4 weeks. Tumor growth/re-growth on or near the injection site was monitored for up to 55 days. […] Tumor growth inhibition is calculated by dividing the group average tumor volume for the treated group by the group average tumor volume for the control group (TIC). A one-way ANOVA was performed to compare tumor volume among groups, and when a significant F-statistics (a ratio of treatment variance to the error variance) was obtained, comparisons between groups were carried out with Games-Howell test. All data were analyzed using GraphPad 5.0. P<0.05 was considered to be statistically significant.
A Mann-Whitney method was performed to analyze the tumor clearance rate comparing drug treated groups with the vehicle group at the end of the efficacy study. P<0.05 was considered to be statistically significant. Vehicle-injected tumors kept growing and there was no tumor clearance at the end point.

Mino (Lymphoma) = assay: Proliferation of Mino; assay type: cell-based; conditions: for IC50: Homo sapiens, MINO, read-out: IC50 Mino (Lymphoma)
In short: as §1

T1 sequence (Q02156 242-292 limits assumed): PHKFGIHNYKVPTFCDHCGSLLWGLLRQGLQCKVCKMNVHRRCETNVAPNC

| SMILES | ratio (IC50 of K101)/(IC50 of compound) Namalwa (Namalwa (Lymphoma)) | IC50 (Namalwa (Lymphoma)) [nM] | IC50 (PANC1 cells) [nM] | Ki (C1b domain of human PKCε) [nM] | ratio (IC50 of K101)/(IC50 of compound) HL-60 (HL-60 (Leukemia)) | IC50 (HL-60 (Leukemia)) [nM] | ratio (IC50 of K101)/(IC50 of compound) Panc2.13 (Panc2.13 (Pancreatic)) | IC50 (Panc2.13 (Pancreatic)) [nM] | tumor clearance (Panc2.13 tumors) | ratio (IC50 of K101)/(IC50 of compound) Mino (Mino (Lymphoma)) | IC50 (Mino (Lymphoma)) [nM] | IC50 (Panc2.13 (Pancreatic); 96 h) [nM] | Tumor growth inhibition T/C (Panc2.13 tumors) |
| --- | --- | --- | --- | --- | --- | --- | --- | --- | --- | --- | --- | --- | --- |
| CC1=C[C@H]2[C@@]3(O)[C@H](C)C[C@]4(OC(=O)[C@@H](N)CCCCCCc5ccccc5)[C@H]([C@@H]3C=C(CO)C[C@]2(O)C1=O)C4(C)C | 16.1 | 1 to 10 | ≤ 50 | 10 to 30 | 12.1 | 1 to 10 | 57.3 | 10 to 30 | one out of three | 52.2 | 1 to 10 | – | – |
| CC1=C[C@H]2[C@@]3(O)[C@H](C)C[C@]4(OC(=O)[C@@H](N)C5Cc6ccccc6C5)[C@H]([C@@H]3C=C(CO)C[C@]2(O)C1=O)C4(C)C | 1.6 | 30 to 60 | ≤ 150 | 10 to 30 | 1.79 | 30 to 60 | 5.82 | 100 to 200 | – | 5.5 | 10 to 30 | – | – |
| CC1=C[C@H]2[C@@]3(O)[C@H](C)C[C@]4(OC(=O)[C@@H](N)CC5CCCCC5)[C@H]([C@@H]3C=C(CO)C[C@]2(O)C1=O)C4(C)C | 2.03 | 30 to 60 | – | 10 to 30 | 2.32 | 30 to 60 | 7.1 | 100 to 200 | – | 7.33 | 1 to 10 | – | – |
| CC1=C[C@H]2[C@@]3(O)[C@H](C)C[C@]4(OC(=O)[C@H](N)CCCCCCc5ccccc5)[C@H]([C@@H]3C=C(CO)C[C@]2(O)C1=O)C4(C)C | 4.93 | 10 to 30 | ≤ 150 | 10 to 30 | 4.43 | 10 to 30 | 13.4 | – | – | 21.3 | 1 to 10 | 100 to 600 | 0 |
| CC1=C[C@H]2[C@@]3(O)[C@H](C)C[C@]4(OC(=O)[C@@H](N)[C@]56C[C@H]7C[C@H](C[C@H](C7)C5)C6)[C@H]([C@@H]3C=C(CO)C[C@]2(O)C1=O)C4(C)C | 18.2 | 1 to 10 | ≤ 50 | – | 16.2 | 1 to 10 | 71.7 | 10 to 30 | two out of three | 52.2 | 1 to 10 | – | 3.3 |

— patent US20240197666A1, “DITERPENOID COMPOUNDS THAT ACT ON PROTEIN KINASE C (PKC)” (K-Gen Therapeutics, Inc., priority 2021, published 2024)
